In article doi:10.1101/2025.10.09.681351v1 (biorxiv, 2025) one finds Kd data, which are given here for one compound.

In experiment [1] the target is EPAS1 (mouse recombinant EPAS1; HIF-2α) (Mus musculus, UniProt P97481). As to the kind of experiment: isothermal titration calorimetry. It is filed as binding. (ITC needs no label: the signal is the heat of the interaction.)
In experiment [2] the target is recombinant human EPAS1 (Homo sapiens, UniProt Q99814). As to the kind of experiment: isothermal titration calorimetry. It is filed as binding.
Sequence of recombinant human EPAS1 (Q99814 whole entry): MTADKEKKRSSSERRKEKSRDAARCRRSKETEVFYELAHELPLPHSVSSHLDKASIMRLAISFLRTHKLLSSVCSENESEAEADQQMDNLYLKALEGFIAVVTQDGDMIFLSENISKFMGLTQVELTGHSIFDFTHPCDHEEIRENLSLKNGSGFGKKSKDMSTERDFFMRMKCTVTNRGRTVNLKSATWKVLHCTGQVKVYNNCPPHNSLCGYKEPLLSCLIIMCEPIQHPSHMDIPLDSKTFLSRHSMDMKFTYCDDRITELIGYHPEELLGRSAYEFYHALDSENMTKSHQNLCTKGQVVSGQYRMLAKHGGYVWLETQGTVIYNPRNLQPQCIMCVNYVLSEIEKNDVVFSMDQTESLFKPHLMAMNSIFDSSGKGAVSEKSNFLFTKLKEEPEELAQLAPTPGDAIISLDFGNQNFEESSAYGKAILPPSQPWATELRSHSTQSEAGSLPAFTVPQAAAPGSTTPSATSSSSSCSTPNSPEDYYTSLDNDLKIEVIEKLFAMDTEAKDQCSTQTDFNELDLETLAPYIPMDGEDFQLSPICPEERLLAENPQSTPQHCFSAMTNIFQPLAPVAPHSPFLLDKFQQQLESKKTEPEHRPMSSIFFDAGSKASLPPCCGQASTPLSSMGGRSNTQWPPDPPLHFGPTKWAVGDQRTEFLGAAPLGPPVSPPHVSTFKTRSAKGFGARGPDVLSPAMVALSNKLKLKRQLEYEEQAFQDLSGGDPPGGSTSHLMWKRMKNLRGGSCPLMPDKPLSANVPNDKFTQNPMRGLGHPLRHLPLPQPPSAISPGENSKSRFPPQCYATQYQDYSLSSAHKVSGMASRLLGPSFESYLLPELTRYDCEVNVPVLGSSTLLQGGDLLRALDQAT

Sequence of EPAS1 (mouse recombinant EPAS1; HIF-2α) (P97481 whole entry): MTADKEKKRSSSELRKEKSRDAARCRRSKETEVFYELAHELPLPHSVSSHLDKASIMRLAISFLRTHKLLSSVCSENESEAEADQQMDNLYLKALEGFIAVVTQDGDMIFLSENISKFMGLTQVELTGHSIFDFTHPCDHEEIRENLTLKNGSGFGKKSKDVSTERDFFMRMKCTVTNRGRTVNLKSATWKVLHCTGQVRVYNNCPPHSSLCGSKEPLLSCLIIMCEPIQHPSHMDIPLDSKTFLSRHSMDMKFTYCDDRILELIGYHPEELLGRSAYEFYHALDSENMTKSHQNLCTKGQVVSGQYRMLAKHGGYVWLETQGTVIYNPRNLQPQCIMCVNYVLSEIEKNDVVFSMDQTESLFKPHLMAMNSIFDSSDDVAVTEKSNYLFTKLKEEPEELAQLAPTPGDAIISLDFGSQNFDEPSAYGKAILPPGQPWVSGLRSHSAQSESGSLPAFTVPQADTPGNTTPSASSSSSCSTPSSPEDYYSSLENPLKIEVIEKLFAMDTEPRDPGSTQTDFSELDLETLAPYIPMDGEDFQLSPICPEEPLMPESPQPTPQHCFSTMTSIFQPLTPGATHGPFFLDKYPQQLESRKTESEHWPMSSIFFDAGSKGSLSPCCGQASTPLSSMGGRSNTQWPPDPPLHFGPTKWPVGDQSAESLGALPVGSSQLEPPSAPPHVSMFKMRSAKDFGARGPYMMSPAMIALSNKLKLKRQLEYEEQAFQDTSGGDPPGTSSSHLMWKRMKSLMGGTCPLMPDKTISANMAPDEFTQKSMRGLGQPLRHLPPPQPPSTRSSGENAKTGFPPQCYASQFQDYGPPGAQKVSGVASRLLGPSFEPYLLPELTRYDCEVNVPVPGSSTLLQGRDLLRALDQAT

The term Kd denotes the free concentration of one partner at which half of the binding sites on the other are occupied at equilibrium, for simple one-to-one binding. Take `CCCCCCCCC/C=C\C(=O)O` [BDSF]: the dissociation constant Kd in experiment [1] came out at 4.3 µM; in experiment [2] it was 5.3 µM.
